The record followed here is PMC7551059, “Bioactive Bianthraquinones and Meroterpenoids from a Marine-Derived Stemphylium sp. Fungus” (Marine Drugs, 2020).

Read-outs that look alike come from different tables or passages of the source.

This test concerns lipopolysaccharide (LPS)-induced nitric oxide (NO) production in RAW 264.7 mouse macrophages. The experiment in a line: LPS-induced NO (nitrite) production in RAW 264.7 cells, Griess reagent. It is filed as cell-based. To be noted: for IC50: Mus musculus. The procedure:
A RAW 264.7 murine macrophage cell line was purchased from American Type Cell Culture (Rockville, MD, USA). Cells were cultured in DMEM with 10% fetal bovine serum and antibiotic−antimycotics (i.e., penicillin G sodium, 100 units/mL; streptomycin, 100 μg/mL; amphotericin B, 250 ng/mL) at 37 °C in a humidified incubator with 5% carbon dioxide. All reagents used for cell culture were purchased from Gibco® Invitrogen Corp. (Grand Island, NY, USA).
The concentration of nitrite in the cultured media was used as a measure of NO production. The assay was performed as previously described. RAW 264.7 cells were plated at a density of 5 × 10^5 per well in a 24-well culture plate and incubated in a 37 °C humidified incubator with 5% CO2 in air for 18 h. The incubated cells were pretreated with phenol-red-free medium containing various concentrations of tested compounds for 30 min, followed by 1 μg/mL of LPS treatment for 18 h more. Aliquots of the supernatant from each well (100 μL) were transferred to a 96-well plate, and nitrite concentration was measured using Griess reagent. After the Griess reaction, MTT solution (final concentration of 500 μg/mL) was added to each well and further incubated for 4 h at 37 °C. Each medium was discarded, and dimethyl sulfoxide was added to each well to dissolve generated formazan. The absorbance was measured at 570 nm, and percent survival was determined by comparison with LPS treated control group. All reagents used in the nitrite production measurement were purchased from Sigma-Aldrich (St. Louis, MO, USA).
A general note: The Griess reaction detects nitrite, a stable product of nitric oxide.

The mark [1] stands for this setting: RAW264.7, RAW 264.7 cells, compounds 30 min before LPS 1 μg/mL, 18 h, read-out: IC50, suppression of LPS-induced NO production.

For `COc1c(-c2cc(O)c3c(c2OC)C(=O)c2cc(C)c(O)cc2C3=O)cc(O)c2c1C(=O)C1=C(C2=O)[C@H](O)[C@@H](O)[C@@](C)(O)[C@H]1O` (relative stereo) [Compound 2, alterporriol Z2], the IC50 – broadly, the midpoint of a concentration-inhibition curve – under setting [1] was 16.1 ± 1.1 µM. Turning to `COc1c(-c2cc(O)c3c(c2OC)C(=O)c2cc(C)c(O)cc2C3=O)cc(O)c2c1C(=O)C1=C(C2=O)C(O)C(O)C(C)(O)C1O` (stereo not drawn) [Compound 1, alterporriol Z1], the concentration for half-maximal inhibition (IC50) under setting [1] was determined as 11.6 ± 0.7 µM. As for `COc1cc(O)c2c(c1)C(=O)c1cc(C)c(O)c(-c3c(OC)cc(O)c4c3C(=O)C3=C(C4=O)C(OC)C(O)C(C)(O)C3O)c1C2=O` (stereo not drawn) [Compound 3, alterporriol Z3], the “IC50, suppression of LPS-induced NO production” value (RAW 264.7 cells, compounds 30 min before LPS 1 μg/mL, 18 h) was “inactive”. Regarding `COc1cc(O)c2c(c1-c1c(OC)cc(O)c3c1C(=O)c1cc(C)c(O)cc1C3=O)C(=O)C1=C(C[C@@H](O)[C@@](C)(O)[C@@H]1O)C2=O` [Compound 4, alterporriol F], the IC50 under setting [1] is 9.6 ± 1.6 µM. On to `COc1cc2c(c(O)c1-c1c(OC)cc(O)c3c1C(=O)C1=C(C3=O)[C@H](O)[C@@H](O)[C@@](C)(O)[C@@H]1O)C(=O)c1cc(O)c(C)cc1C2=O` [Compound 5, alterporriol G], for which the IC50 (RAW264.7, read-out: IC50, suppression of LPS-induced NO production) is 8.4 ± 0.4 µM.

Regarding `COc1cc(O)c2c(c1)C(=O)c1cc(C)c(O)c(-c3c(OC)cc(O)c4c3C(=O)C3=C(C4=O)[C@H](O)[C@@H](O)[C@@](C)(O)[C@H]3O)c1C2=O` [Compound 6, alterporriol N], the IC50 under setting [1] worked out at 10.7 ± 0.6 µM.
